Assay results reported in patent US8993574B2, “Pyrrole antifungal agents” (F2G Ltd, priority 2008, dated 2015).
In brackets after ≈: the same amount, converted by molar mass.

Columns and labels:
Format in all cases: cell-based
[1] = system: Aspergillus flavus; assay: MIC, RPMI medium; conditions: MIC banded into grades; for MIC: Aspergillus flavus, read-out: MIC grade, A. flavus
In short: (§1)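 OD485-based endpoint after 24-48 h/35° C; MIC = lowest concentration, >80% inhibition relative to drug-free. RPMI/2% glucose/0.135 M MOPS pH 7.0; 1−2×10^4 cfu/mL; range 50-0.05 mg/L.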

[2] = system: Aspergillus terreus AT49; assay: MIC, RPMI medium; conditions: for MIC grade, A. terreus 49: MIC banded into grades; for MIC: Aspergillus terreus, AT49, MIC banded into grades, read-out: MIC grade, A. terreus 49
In short: as §1

[3] = system: Aspergillus fumigatus AF293; assay: MIC, RPMI medium; conditions: for MIC grade, A. fumigatus: MIC banded into grades; for MIC: Aspergillus fumigatus, AF293, MIC banded into grades, read-out: MIC grade, A. fumigatus
In short: as §1

[4] = system: Aspergillus terreus AT4; assay: MIC, RPMI medium; conditions: for MIC grade, A. terreus: MIC banded into grades; for MIC: Aspergillus terreus, AT4, MIC banded into grades, read-out: MIC grade, A. terreus
In short: as §1

[5] = system: Aspergillus niger; assay: MIC, RPMI medium; conditions: MIC banded into grades; for MIC: Aspergillus niger, read-out: MIC grade, A. niger
In short: as §1

[6] = system: Aspergillus fumigatus AF210; assay: MIC, RPMI medium; conditions: for MIC grade, A. fumigatus 210: MIC banded into grades; for MIC: Aspergillus fumigatus, AF210, MIC banded into grades, read-out: MIC grade, A. fumigatus 210
In short: as §1

[7] = system: Aspergillus flavus; assay: MIC, YAG medium; conditions: 24 h at 35° C, MIC banded into grades; for MIC: Aspergillus flavus, 24 h, read-out: MIC grade, A. flavus
In short: (§2)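 MICs (mg/L) derive from the lowest compound concentration suppressing spore outgrowth by >70% against a drug-free well, by OD 485 nm. Conditions: YAG medium, 1−2×10^4 cfu/mL, 24 h, 35° C, two-fold dilutions from 50 mg/L.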

[8] = system: Aspergillus terreus AT49; assay: MIC, YAG medium; conditions: 24 h at 35° C, MIC banded into grades; for MIC: Aspergillus terreus, read-out: MIC grade, A. terreus 49
In short: as §2

[9] = system: Aspergillus fumigatus AF293; assay: MIC, YAG medium; conditions: 24 h at 35° C, MIC banded into grades; for MIC: Aspergillus fumigatus, read-out: MIC grade, A. fumigatus
In short: as §2

[10] = system: Aspergillus terreus AT4; assay: MIC, YAG medium; conditions: 24 h at 35° C, MIC banded into grades; for MIC: Aspergillus terreus, read-out: MIC grade, A. terreus
In short: as §2

[11] = system: Aspergillus niger; assay: MIC, YAG medium; conditions: 24 h at 35° C, MIC banded into grades; for MIC: Aspergillus niger, read-out: MIC grade, A. niger
In short: as §2

[12] = system: Aspergillus fumigatus AF210; assay: MIC, YAG medium; conditions: 24 h at 35° C, MIC banded into grades; for MIC: Aspergillus fumigatus, read-out: MIC grade, A. fumigatus 210
In short: as §2

SMILES | MIC [1] | MIC [2] | MIC [3] | MIC [4] | MIC [5] | MIC [6] | MIC [7] | MIC [8] | MIC [9] | MIC [10] | MIC [11] | MIC [12] | also measured
CCOC(=O)n1c(C)cc(-c2ccccc2)c1C(=O)C(=O)Nc1ccc(N2CCN(c3cc(C)cc(C)n3)CC2)cc1 [Example 55, 2-{4-[4-(4,6-Dimethyl-pyridin-2-yl)-piperazin-1-yl]-phenylaminooxalyl}-5-methyl-3-phenyl-pyrrole-1-carboxylic acid ethyl ester] |  |  |  |  |  |  |  |  |  |  |  |  | MIC grade, A. flavus [1]: 1 (a grade of 1 represents an MIC of greater than 10 mg/L); MIC grade, A. terreus 49 [2]: 1 (a grade of 1 represents an MIC of greater than 10 mg/L); MIC grade, A. fumigatus [3]: 1 (a grade of 1 represents an MIC of greater than 10 mg/L); MIC grade, A. terreus [4]: 1 (a grade of 1 represents an MIC of greater than 10 mg/L); MIC grade, A. niger [5]: 1 (a grade of 1 represents an MIC of greater than 10 mg/L); MIC grade, A. fumigatus 210 [6]: 1 (a grade of 1 represents an MIC of greater than 10 mg/L); MIC grade, A. flavus [7]: 1 (a grade of 1 represents an MIC of greater than 10 mg/L); MIC grade, A. terreus 49 [8]: 2 (A grade of 2 represents an MIC of from 1 to 10 mg/L); MIC grade, A. fumigatus [9]: 2 (A grade of 2 represents an MIC of from 1 to 10 mg/L); MIC grade, A. terreus [10]: 1 (a grade of 1 represents an MIC of greater than 10 mg/L); MIC grade, A. niger [11]: 1 (a grade of 1 represents an MIC of greater than 10 mg/L); MIC grade, A. fumigatus 210 [12]: 2 (A grade of 2 represents an MIC of from 1 to 10 mg/L)
Cc1cc(C)nc(N2CCN(c3ccc(NC(=O)C(=O)c4c(-c5ccccc5)cc(C)n4C)cc3COCCCN3CCOCC3)CC2)c1 [Example 10, 2-(1,5-Dimethyl-3-phenyl-1H-pyrrol-2-yl)-N-[4-[4-(4,6-dimethyl-pyridin-2-yl)-piperazin-1-yl]-3-(3-morpholin-4-yl-propoxymethyl)-phenyl]-2-oxo-acetamide] | > 10 µg/mL | > 10 µg/mL | > 10 µg/mL | > 10 µg/mL | > 10 µg/mL | > 10 µg/mL | 1 to 10 µg/mL (≈ 1.5 to 15 µM) | 1 to 10 µg/mL (≈ 1.5 to 15 µM) | > 10 µg/mL | > 10 µg/mL | > 10 µg/mL | > 10 µg/mL | 
COCCn1ccc(-c2cccs2)c1C(=O)C(=O)Nc1ccc(N2CCN(c3cc(C)cc(C)n3)CC2)cc1 [Example 67, N-{4-[4-(4,6-Dimethyl-pyridin-2-yl)-piperazin-1-yl]-phenyl}-2-[1-(2-methoxy-ethyl)-3-thiophen-2-yl-1H-pyrrol-2-yl]-2-oxo-acetamide] | 1 to 10 µg/mL (≈ 1.84 to 18.4 µM) | < 1 µg/mL | 1 to 10 µg/mL (≈ 1.84 to 18.4 µM) | < 1 µg/mL | > 10 µg/mL | 1 to 10 µg/mL (≈ 1.84 to 18.4 µM) | < 1 µg/mL | < 1 µg/mL | < 1 µg/mL | < 1 µg/mL | 1 to 10 µg/mL (≈ 1.84 to 18.4 µM) | < 1 µg/mL | 
COCCn1cc(-c2ccccc2Cl)cc1C(=O)C(=O)Nc1ccc(N2CCN(c3cc(C)cc(C)n3)CC2)cc1 [Example 58, 2-[4-(2-Chloro-phenyl)-1-(2-methoxy-ethyl)-1H-pyrrol-2-yl]-N-{4-[4-(4,6-dimethyl-pyridin-2-yl)-piperazin-1-yl]-phenyl}-2-oxo-acetamide] | > 10 µg/mL | > 10 µg/mL | > 10 µg/mL | > 10 µg/mL | > 10 µg/mL | > 10 µg/mL | 1 to 10 µg/mL (≈ 1.75 to 17.5 µM) | 1 to 10 µg/mL (≈ 1.75 to 17.5 µM) | 1 to 10 µg/mL (≈ 1.75 to 17.5 µM) | 1 to 10 µg/mL (≈ 1.75 to 17.5 µM) | > 10 µg/mL | 1 to 10 µg/mL (≈ 1.75 to 17.5 µM) | 
COC(=O)Cn1cc(-c2ccccc2)cc1C(=O)C(=O)Nc1ccc(N2CCN(c3cc(C)cc(C)n3)CC2)cc1 [Example 122, (2-{4-[4-(4,6-Dimethyl-pyridin-2-yl)-piperazin-1-yl]-phenylaminooxalyl}-4-phenyl-pyrrol-1-yl)-acetic acid methyl ester] |  |  |  |  |  |  |  |  |  |  |  |  | MIC grade, A. flavus [1]: 1 (a grade of 1 represents an MIC of greater than 10 mg/L); MIC grade, A. terreus 49 [2]: 1 (a grade of 1 represents an MIC of greater than 10 mg/L); MIC grade, A. fumigatus [3]: 1 (a grade of 1 represents an MIC of greater than 10 mg/L); MIC grade, A. terreus [4]: 1 (a grade of 1 represents an MIC of greater than 10 mg/L); MIC grade, A. niger [5]: 2 (A grade of 2 represents an MIC of from 1 to 10 mg/L); MIC grade, A. fumigatus 210 [6]: 1 (a grade of 1 represents an MIC of greater than 10 mg/L); MIC grade, A. flavus [7]: 1 (a grade of 1 represents an MIC of greater than 10 mg/L); MIC grade, A. terreus 49 [8]: 1 (a grade of 1 represents an MIC of greater than 10 mg/L); MIC grade, A. fumigatus [9]: 3 (A grade of 3 represents an MIC of less than 1 mg/L); MIC grade, A. terreus [10]: 1 (a grade of 1 represents an MIC of greater than 10 mg/L); MIC grade, A. niger [11]: 2 (A grade of 2 represents an MIC of from 1 to 10 mg/L); MIC grade, A. fumigatus 210 [12]: 2 (A grade of 2 represents an MIC of from 1 to 10 mg/L)
Cc1cc(C)nc(N2CCN(c3ccc(NC(=O)C(=O)c4c(-c5ccccc5)cc(C)n4CCO)cc3)CC2)c1 [Example 64, N-{4-[4-(4,6-Dimethyl-pyridin-2-yl)-piperazin-1-yl]-phenyl}-2-[1-(2-hydroxy-ethyl)-5-methyl-3-phenyl-1H-pyrrol-2-yl]-2-oxo-acetamide] | 1 to 10 µg/mL (≈ 1.86 to 18.6 µM) | < 1 µg/mL | < 1 µg/mL | 1 to 10 µg/mL (≈ 1.86 to 18.6 µM) | < 1 µg/mL | < 1 µg/mL | < 1 µg/mL | < 1 µg/mL | < 1 µg/mL | < 1 µg/mL | < 1 µg/mL | < 1 µg/mL | 
COCCCn1c(C)cc(-c2ccccc2)c1C(=O)C(=O)Nc1ccc(N2CCN(c3cc(C)cc(C)n3)CC2)cc1 [Example 28, N-{4-[4-(4,6-Dimethyl-pyridin-2-yl)-piperazin-1-yl]-phenyl}-2-[1-(3-methoxy-propyl)-5-methyl-3-phenyl-1H-pyrrol-2-yl]-2-oxo-acetamide] | 1 to 10 µg/mL (≈ 1.77 to 17.7 µM) | 1 to 10 µg/mL (≈ 1.77 to 17.7 µM) | < 1 µg/mL | 1 to 10 µg/mL (≈ 1.77 to 17.7 µM) | < 1 µg/mL | < 1 µg/mL | 1 to 10 µg/mL (≈ 1.77 to 17.7 µM) | < 1 µg/mL | < 1 µg/mL | < 1 µg/mL | < 1 µg/mL | < 1 µg/mL | 

Continued, in another order:

MIC [1] | MIC [2] | MIC [3] | MIC [4] | MIC [5] | MIC [6] | MIC [7] | MIC [8] | MIC [9] | MIC [10] | MIC [11] | MIC [12] | SMILES | also measured
1 to 10 µg/mL (≈ 1.85 to 18.5 µM) | 1 to 10 µg/mL (≈ 1.85 to 18.5 µM) | < 1 µg/mL | < 1 µg/mL | < 1 µg/mL | < 1 µg/mL | < 1 µg/mL | < 1 µg/mL | < 1 µg/mL | < 1 µg/mL | < 1 µg/mL | < 1 µg/mL | COCCn1c(C)cc(-c2ccccc2)c1C(=O)C(=O)Nc1ccc(N2CCN(c3ccccn3)CC2)cc1F [Example 96, N-[2-Fluoro-4-(4-pyridin-2-yl-piperazin-1-yl)-phenyl]-2-[1-(2-methoxy-ethyl)-5-methyl-3-phenyl-1H-pyrrol-2-yl]-2-oxo-acetamide] | 
< 1 µg/mL | < 1 µg/mL | < 1 µg/mL | < 1 µg/mL | < 1 µg/mL | < 1 µg/mL | < 1 µg/mL | < 1 µg/mL | < 1 µg/mL | < 1 µg/mL | < 1 µg/mL | < 1 µg/mL | Cc1cc(-c2ccccc2)c(C(=O)C(=O)Nc2ccc(N3CCN(CC(C)C)CC3)c(F)c2)n1C [Example 118, 2-(1,5-Dimethyl-3-phenyl-1H-pyrrol-2-yl)-N-[3-fluoro-4-(4-isobutyl-piperazin-1-yl)-phenyl]-2-oxo-acetamide] | 
> 10 µg/mL | > 10 µg/mL | > 10 µg/mL | > 10 µg/mL | > 10 µg/mL | > 10 µg/mL | > 10 µg/mL | > 10 µg/mL | 1 to 10 µg/mL (≈ 1.71 to 17.1 µM) | > 10 µg/mL | > 10 µg/mL | > 10 µg/mL | Cc1cc(C)nc(N2CCN(c3ccc(NC(=O)C(=O)c4c(-c5ccccc5)cc(C)n4Cc4ccncc4)cc3)CC2)c1 [Example 102, N-{4-[4-(4,6-Dimethyl-pyridin-2-yl)-piperazin-1-yl]-phenyl}-2-(5-methyl-3-phenyl-1-pyridin-4-ylmethyl-1H-pyrrol-2-yl)-2-oxo-acetamide] | 
< 1 µg/mL | < 1 µg/mL | < 1 µg/mL | < 1 µg/mL | < 1 µg/mL | < 1 µg/mL | < 1 µg/mL | < 1 µg/mL | < 1 µg/mL | < 1 µg/mL | < 1 µg/mL | < 1 µg/mL | Cc1cc(-c2ccccc2)c(C(=O)C(=O)Nc2ccc(N3CCCCC3)cc2F)n1C [Example 106, 2-(1,5-Dimethyl-3-phenyl-1H-pyrrol-2-yl)-N-(2-fluoro-4-piperidin-1-yl-phenyl)-2-oxo-acetamide] | 
